# What was measured:
# [1] = dissolving in water; format: physicochemical
# [2] = system: H441; experiment: MTS tetrazolium salt cytotoxicity assay; format: cell-based, human; conditions: 12 hrs
# Experimental: Hep3B was incubated in Dulbecco's Modified Eagle's medium (DMEM), while H441 and MCF-7 were incubated in RPMI-1640, both of the media containing 10% fetal bovine serum and 40 mg/L gentamycin.
# The cytotoxicity of cancer cells was determined using tetrazolium salt assay (MTS, Mosmann. T., 1983, Immunol. Meth., 65, 55–63), which was conducted for the calorimetric determination of cell viability according to the manufacturer's procedures (CellTiter 96™ AQ, Promega, Madison, USA).
# Cells were seeded at 1×10^4 cells/well in a 96-well plate and incubated in 5% CO2 incubator at 37° C. for at least 16 hrs. The water-soluble extract from Solanum incanum L. was dissolved in sterile injection water to give different test concentrations, which were added to each cancer-cell incubating medium in the well, and allowed to react for 12 hrs. 20 μl MTS was then added to each well, and the solution was allowed to react for 3 hrs. Upon completion of the reaction, absorbency in each well was determined at 490 nm by using ELISA reader 312e, Bio-TEK. Each value was expressed as means ±SD from three experiments.
# Cytotoxicity was determined by MTS tetrazolium salt assay disclosed in Pharmacological assay 1. […] Data were expressed as means ±SD from three experiments.
# [3] = dried powders, without being pre-treated with DMSO
# [4] = purified from the water-soluble extract by HPLC
SMILES,"dissolving in water [1, 3]","dissolving in water [1, 4]",inhibiting the growth of H441 [2]
C[C@@H]1CC[C@@]2(NC1)O[C@H]1C[C@H]3[C@@H]4CC=C5C[C@@H](O[C@@H]6O[C@H](CO)[C@@H](O[C@@H]7O[C@@H](C)[C@H](O)[C@@H](O)[C@H]7O)[C@H](O)[C@H]6O[C@@H]6O[C@@H](C)[C@H](O)[C@@H](O)[C@H]6O)CC[C@]5(C)[C@H]4CC[C@]3(C)[C@H]1[C@@H]2C [solamargine],could not dissolve in water,directly dissolved in water,effectively inhibited
C[C@@H]1CC[C@@]2(NC1)O[C@H]1C[C@H]3[C@@H]4CC=C5C[C@@H](O[C@@H]6O[C@H](CO)[C@H](O)[C@H](O[C@@H]7O[C@H](CO)[C@@H](O)[C@H](O)[C@H]7O)[C@H]6O[C@@H]6O[C@@H](C)[C@H](O)[C@@H](O)[C@H]6O)CC[C@]5(C)[C@H]4CC[C@]3(C)[C@H]1[C@@H]2C [solasonine],could not dissolve in water,directly dissolved in water,effectively inhibited

# Reference: patent US7078063B2, “Water soluble extract from plant of Solanum genus and the preparation process thereof, and pharmaceutical composition containing the water soluble extract” (G & E Herbal Biotechnology Co., LTD., priority 2003, dated 2006)
